Reference: patent publication US6914045B2, “Glycopeptide antibiotics” (Wyeth Holdings Corporation, priority 2001, dated 2005)
≈ marks a conversion by molar mass, not a printed value.

Legend:
Assay in all cases: in vitro antibacterial evaluation, MIC by broth dilution
Format in all cases: cell-based
Enterococcus sp. = conditions: broth dilution, 18 hours at 35° C.; for MIC Enterococcus faecalis (GC 2242): strain GC 2242; for MIC Enterococcus faecalis (GC 4552): strain GC 4552
How it was run: (§1)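 Broth dilution per NCCLS M7-A2 in Mueller-Hinton II medium, inoculum 5×10^5 CFU/mL, antibiotic range 64-0.06 μg/mL. MIC taken as lowest concentration inhibiting growth; Gram-positive panel includes recent clinical isolates resistant to methicillin, penicillin and/or vancomycin.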

Escherichia coli = conditions: 18 hours at 35° C.
How it was run: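 Following National Committee for Clinical Laboratory Standards recommendations (M7-A2), susceptibility was measured by dilution in Muller-Hinton II […]. Bacteria were seeded at 5×10^5 CFU/mL against compound concentrations from 64 down to 0.06 μg/mL.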

Staphylococcus sp. = conditions: broth dilution, 18 hours at 35° C.
How it was run: as §1

Streptococcus sp. = conditions: broth dilution, 18 hours at 35° C.; for MIC Streptococcus agalactiae (GC 4564): strain GC 4564
How it was run: as §1

[1] = Enterococcus faecalis (ATCC 29212)
[2] = Enterococcus faecalis (GC 4553)
[3] = Enterococcus faecalis (GC 4554)

## CC(C)CC(=O)OCC1OC(OC2C(CO)OC(Oc3ccc(CC4NC(=O)C(Cc5ccccc5)NC(=O)CNC(=O)C(CO)NC(=O)C(C(O)C5CNC(=N)N5C5OC(CO)C(O)C(O)C5O)NC(=O)C(C(O)C5CNC(=N)N5)NC4=O)cc3)C(O)C2O)C(O)C(O)C1O (centres unmarked) [Example 283c, Cyclo[glycylphenylalanyl-O-[4-O-[6-O-(3-methylbutanoyl)-hexopyranosyl]hexopyranosyl]tyrosyl-3-(2-iminoimidazolidin-4-yl)seryl-3-(3-hexopyranosyl-2-iminoimidazolidin-4-yl)serylseryl]]
Enterococcus sp.; Enterococcus avium (GC 4558)
  MIC Enterococcus avium (GC 4558): 128 mg/L (≈ 93.7 µM)
Enterococcus sp.; [1]
  MIC Enterococcus faecalis (ATCC 29212): 128 mg/L (≈ 93.7 µM)
Enterococcus sp.; [2]
  MIC Enterococcus faecalis (GC 4553): 128 mg/L (≈ 93.7 µM)
Enterococcus sp.; [3]
  MIC Enterococcus faecalis (GC 4554): >128 mg/L
Enterococcus sp.; Enterococcus faecalis (GC 6189)
  MIC Enterococcus faecalis (GC 6189): 128 mg/L (≈ 93.7 µM)
Enterococcus sp.; Enterococcus faecium (GC 2243)
  MIC Enterococcus faecium (GC 2243): 128 mg/L (≈ 93.7 µM)
Enterococcus sp.; Enterococcus faecium (GC 4556)
  MIC Enterococcus faecium (GC 4556): 128 mg/L (≈ 93.7 µM)
Enterococcus sp.; Enterococcus faecium (GC 4557)
  MIC Enterococcus faecium (GC 4557): 16 mg/L (≈ 11.7 µM)
Enterococcus sp.; strain ATCC 29212
  MIC Enterococcus faecalis (ATCC 29212): 128 mg/L (≈ 93.7 µM)
Enterococcus sp.
  MIC Enterococcus faecalis (GC 2242): 128 mg/L (≈ 93.7 µM)
  MIC Enterococcus faecalis (GC 4552): 128 mg/L (≈ 93.7 µM)
Enterococcus sp.; strain GC 2243
  MIC Enterococcus faecium (GC 2243): 128 mg/L (≈ 93.7 µM)
Enterococcus sp.; strain GC 2691
  MIC Enterococcus faecalis (GC 2691): 128 mg/L (≈ 93.7 µM)
Enterococcus sp.; strain GC 3059
  MIC Enterococcus faecalis (GC 3059): >128 mg/L
Enterococcus sp.; strain GC 4553
  MIC Enterococcus faecalis (GC 4553): 128 mg/L (≈ 93.7 µM)
Enterococcus sp.; strain GC 4554
  MIC Enterococcus faecalis (GC 4554): >128 mg/L
Enterococcus sp.; strain GC 4556
  MIC Enterococcus faecium (GC 4556): 128 mg/L (≈ 93.7 µM)
Enterococcus sp.; strain GC 4557
  MIC Enterococcus faecium (GC 4557): 16 mg/L (≈ 11.7 µM)
Enterococcus sp.; strain GC 4558
  MIC Enterococcus avium (GC 4558): 128 mg/L (≈ 93.7 µM)
Enterococcus sp.; strain GC 6189
  MIC Enterococcus faecalis (GC 6189): 128 mg/L (≈ 93.7 µM)
Escherichia coli
  MIC Escherichia coli (ATCC 25922): 128 mg/L (≈ 93.7 µM)
  MIC Escherichia coli (GC 4559): 128 mg/L (≈ 93.7 µM)
  MIC Escherichia coli (GC 4560): 8 mg/L (≈ 5.86 µM)
Staphylococcus sp.
  MIC Coagulase Negative Staphylococcus (GC 4547): 16 mg/L (≈ 11.7 µM)
  MIC Coagulase Negative Staphylococcus (GC 4548): 8 mg/L (≈ 5.86 µM)
  MIC Coagulase Negative Staphylococcus (GC 4549): 16 mg/L (≈ 11.7 µM)
  MIC Coagulase Negative Staphylococcus (GC 4551): 32 mg/L (≈ 23.4 µM)
  MIC Staphylococcus aureus (ATCC 29213): 32 mg/L (≈ 23.4 µM)
  MIC Staphylococcus aureus (GC 1131): 32 mg/L (≈ 23.4 µM)
  MIC Staphylococcus aureus (GC 3051): 32 mg/L (≈ 23.4 µM)
  MIC Staphylococcus aureus (GC 3053): 64 mg/L (≈ 46.9 µM)
  MIC Staphylococcus aureus (GC 4541): 32 mg/L (≈ 23.4 µM)
  MIC Staphylococcus aureus (GC 4542): 32 mg/L (≈ 23.4 µM)
  MIC Staphylococcus aureus (GC 4544): 32 mg/L (≈ 23.4 µM)
  MIC Staphylococcus aureus (GC 4545): 16 mg/L (≈ 11.7 µM)
  MIC Staphylococcus aureus-SMITH (GC 4543): 16 mg/L (≈ 11.7 µM)
  MIC Staphylococcus haemolyticus (GC 4546): 16 mg/L (≈ 11.7 µM)
Staphylococcus sp.; strain ATCC 29213
  MIC Staphylococcus aureus (ATCC 29213): 32 mg/L (≈ 23.4 µM)
Staphylococcus sp.; strain GC 1131
  MIC Staphylococcus aureus (GC 1131): 32 mg/L (≈ 23.4 µM)
Staphylococcus sp.; strain GC 3051
  MIC Staphylococcus aureus (GC 3051): 32 mg/L (≈ 23.4 µM)
Staphylococcus sp.; strain GC 3053
  MIC Staphylococcus aureus (GC 3053): 64 mg/L (≈ 46.9 µM)
Staphylococcus sp.; strain GC 4541
  MIC Staphylococcus aureus (GC 4541): 32 mg/L (≈ 23.4 µM)
Staphylococcus sp.; strain GC 4542
  MIC Staphylococcus aureus (GC 4542): 32 mg/L (≈ 23.4 µM)
Staphylococcus sp.; strain GC 4544
  MIC Staphylococcus aureus (GC 4544): 32 mg/L (≈ 23.4 µM)
Staphylococcus sp.; strain GC 4545
  MIC Staphylococcus aureus (GC 4545): 16 mg/L (≈ 11.7 µM)
Staphylococcus sp.; strain GC 4546
  MIC Staphylococcus haemolyticus (GC 4546): 16 mg/L (≈ 11.7 µM)
Staphylococcus sp.; strain GC 4547
  MIC Coagulase Negative Staphylococcus (GC 4547): 16 mg/L (≈ 11.7 µM)
Staphylococcus sp.; strain GC 4548
  MIC Coagulase Negative Staphylococcus (GC 4548): 8 mg/L (≈ 5.86 µM)
Staphylococcus sp.; strain GC 4549
  MIC Coagulase Negative Staphylococcus (GC 4549): 16 mg/L (≈ 11.7 µM)
Staphylococcus sp.; strain GC 4551
  MIC Coagulase Negative Staphylococcus (GC 4551): 32 mg/L (≈ 23.4 µM)
Staphylococcus sp.; strain SMITH GC 4543
  MIC Staphylococcus aureus-SMITH (GC 4543): 16 mg/L (≈ 11.7 µM)
Streptococcus sp.; strain ATCC 6301
  MIC Streptococcus pneumoniae (ATCC 6301): 8 mg/L (≈ 5.86 µM)
Streptococcus sp.; strain GC 1894
  MIC Streptococcus pneumoniae (GC 1894): 4 mg/L (≈ 2.93 µM)
Streptococcus sp.; strain GC 4563
  MIC Streptococcus pyogenes (GC 4563): 16 mg/L (≈ 11.7 µM)
Streptococcus sp.
  MIC Streptococcus agalactiae (GC 4564): 16 mg/L (≈ 11.7 µM)
Streptococcus sp.; strain GC 4565
  MIC Streptococcus pneumoniae (GC 4565): 8 mg/L (≈ 5.86 µM)

## CC(C)CC(=O)OC1C(O)C(CO)OC(OC2C(CO)OC(Oc3ccc(CC4NC(=O)C(C(C)c5cccc(F)c5)NC(=O)CNC(=O)C(CO)NC(=O)C(C(O)C5CNC(=N)N5C5OC(CO)C(O)C(O)C5O)NC(=O)C(C(O)C5CNC(=N)N5)NC4=O)cc3)C(O)C2O)C1O (stereo not drawn) [Example 264b, Cyclo[glycyl-3-fluoro-β-methylphenylalanyl-O-[4-O-[3-O-(3-methylbutanoyl)hexopyranosyl]-hexopyranosyl]tyrosyl-3-(2-iminoimidazolidin-4-yl)seryl-3-(3-hexopyranosyl-2-iminoimidazolidin-4-yl)serylseryl]]
Enterococcus sp.; Enterococcus avium (GC 4558)
  MIC Enterococcus avium (GC 4558): 64 mg/L (≈ 45.8 µM)
Enterococcus sp.; [1]
  MIC Enterococcus faecalis (ATCC 29212): 64 mg/L (≈ 45.8 µM)
Enterococcus sp.; [2]
  MIC Enterococcus faecalis (GC 4553): 64 mg/L (≈ 45.8 µM)
Enterococcus sp.; [3]
  MIC Enterococcus faecalis (GC 4554): 64 mg/L (≈ 45.8 µM)
Enterococcus sp.; Enterococcus faecium (GC 2243)
  MIC Enterococcus faecium (GC 2243): 64 mg/L (≈ 45.8 µM)
Enterococcus sp.; Enterococcus faecium (GC 4556)
  MIC Enterococcus faecium (GC 4556): 64 mg/L (≈ 45.8 µM)
Enterococcus sp.; Enterococcus faecium (GC 4557)
  MIC Enterococcus faecium (GC 4557): 8 mg/L (≈ 5.72 µM)
Enterococcus sp.; strain ATCC 29212
  MIC Enterococcus faecalis (ATCC 29212): 64 mg/L (≈ 45.8 µM)
Enterococcus sp.
  MIC Enterococcus faecalis (GC 2242): 32 mg/L (≈ 22.9 µM)
  MIC Enterococcus faecalis (GC 4552): 64 mg/L (≈ 45.8 µM)
Enterococcus sp.; strain GC 2243
  MIC Enterococcus faecium (GC 2243): 64 mg/L (≈ 45.8 µM)
Enterococcus sp.; strain GC 4553
  MIC Enterococcus faecalis (GC 4553): 64 mg/L (≈ 45.8 µM)
Enterococcus sp.; strain GC 4554
  MIC Enterococcus faecalis (GC 4554): 64 mg/L (≈ 45.8 µM)
Enterococcus sp.; strain GC 4556
  MIC Enterococcus faecium (GC 4556): 64 mg/L (≈ 45.8 µM)
Enterococcus sp.; strain GC 4557
  MIC Enterococcus faecium (GC 4557): 8 mg/L (≈ 5.72 µM)
Enterococcus sp.; strain GC 4558
  MIC Enterococcus avium (GC 4558): 64 mg/L (≈ 45.8 µM)
Escherichia coli
  MIC Escherichia coli (ATCC 25922): 64 mg/L (≈ 45.8 µM)
  MIC Escherichia coli (GC 4559): >64 mg/L
  MIC Escherichia coli (GC 4560): 4 mg/L (≈ 2.86 µM)
Staphylococcus sp.
  MIC Coagulase Negative Staphylococcus (GC 4547): 4 mg/L (≈ 2.86 µM)
  MIC Coagulase Negative Staphylococcus (GC 4548): 4 mg/L (≈ 2.86 µM)
  MIC Coagulase Negative Staphylococcus (GC 4549): 4 mg/L (≈ 2.86 µM)
  MIC Coagulase Negative Staphylococcus (GC 4551): 8 mg/L (≈ 5.72 µM)
  MIC Staphylococcus aureus (ATCC 29213): 8 mg/L (≈ 5.72 µM)
  MIC Staphylococcus aureus (GC 1131): 8 mg/L (≈ 5.72 µM)
  MIC Staphylococcus aureus (GC 4541): 8 mg/L (≈ 5.72 µM)
  MIC Staphylococcus aureus (GC 4542): 8 mg/L (≈ 5.72 µM)
  MIC Staphylococcus aureus (GC 4544): 8 mg/L (≈ 5.72 µM)
  MIC Staphylococcus aureus (GC 4545): 4 mg/L (≈ 2.86 µM)
  MIC Staphylococcus aureus-SMITH (GC 4543): 8 mg/L (≈ 5.72 µM)
  MIC Staphylococcus haemolyticus (GC 4546): 4 mg/L (≈ 2.86 µM)
Staphylococcus sp.; strain ATCC 29213
  MIC Staphylococcus aureus (ATCC 29213): 8 mg/L (≈ 5.72 µM)
Staphylococcus sp.; strain GC 1131
  MIC Staphylococcus aureus (GC 1131): 8 mg/L (≈ 5.72 µM)
Staphylococcus sp.; strain GC 4541
  MIC Staphylococcus aureus (GC 4541): 8 mg/L (≈ 5.72 µM)
Staphylococcus sp.; strain GC 4542
  MIC Staphylococcus aureus (GC 4542): 8 mg/L (≈ 5.72 µM)
Staphylococcus sp.; strain GC 4544
  MIC Staphylococcus aureus (GC 4544): 8 mg/L (≈ 5.72 µM)
Staphylococcus sp.; strain GC 4545
  MIC Staphylococcus aureus (GC 4545): 4 mg/L (≈ 2.86 µM)
Staphylococcus sp.; strain GC 4546
  MIC Staphylococcus haemolyticus (GC 4546): 4 mg/L (≈ 2.86 µM)
Staphylococcus sp.; strain GC 4547
  MIC Coagulase Negative Staphylococcus (GC 4547): 4 mg/L (≈ 2.86 µM)
Staphylococcus sp.; strain GC 4548
  MIC Coagulase Negative Staphylococcus (GC 4548): 4 mg/L (≈ 2.86 µM)
Staphylococcus sp.; strain GC 4549
  MIC Coagulase Negative Staphylococcus (GC 4549): 4 mg/L (≈ 2.86 µM)
Staphylococcus sp.; strain GC 4551
  MIC Coagulase Negative Staphylococcus (GC 4551): 8 mg/L (≈ 5.72 µM)
Staphylococcus sp.; strain SMITH GC 4543
  MIC Staphylococcus aureus-SMITH (GC 4543): 8 mg/L (≈ 5.72 µM)
Streptococcus sp.
  MIC Streptococcus agalactiae (GC 4564): 4 mg/L (≈ 2.86 µM)
Streptococcus sp.; strain ID-3187
  MIC Streptococcus pyogenes (ID-3187): 4 mg/L (≈ 2.86 µM)
